How the values were obtained:
Format in all cases: in vivo
Set-up in all cases: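 grade 0 to 5 of growth suppression where 5 is 90% or more and 0 below 10%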
[1] = tested on: Abutilon theophrasti medicus; assay: Herbicidal effects in upland field foliar treatment (Test Example 3); settings: criteria of Table 138; for herbicidal effect (index) on Abutilon theophrasti medicus: 1000 g active ingredient per hectare, 14th day after treatment; for herbicidal effects on Abutilon theophrasti medicus: 1000 g of the active ingredient per hectare, 14th day after the treatment, wettable powder
Procedure, shortened: (§1)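 Post-emergence foliar treatment: two-week-old seedlings from upland field soil received 1000 g a.i./ha (wettable powder, 1000 L water/ha), then returned to the greenhouse for scoring 14 days later.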

[2] = tested on: Echinochloa crus-galli (L.) P. Beauv. var. crus-galli; assay: as above; settings: criteria of Table 138; for herbicidal effect (index) on Echinochloa crus-galli (L.) P. Beauv. var. crus-galli: 1000 g active ingredient per hectare, 14th day after treatment; for herbicidal effects on Echinochloa crus-galli (L.) P. Beauv. var. crus-galli: 1000 g of the active ingredient per hectare, 14th day after the treatment, wettable powder
Procedure, shortened: as §1

Amaranthus viridis L. [3] = assay: as above; settings: criteria of Table 138; for herbicidal effect (index) on Amaranthus viridis L.: 1000 g active ingredient per hectare, 14th day after treatment; for herbicidal effects on Amaranthus viridis L.: 1000 g of the active ingredient per hectare, 14th day after the treatment, wettable powder
Procedure, shortened: as §1

[4] = tested on: Abutilon theophrasti medicus; assay: Herbicidal effects in upland field soil treatment (Test Example 2); settings: 1000 g active ingredient per hectare, 21st day after treatment, criteria of Table 138
Procedure, shortened: (§2)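 Soil-applied before emergence at 1000 g a.i./ha as water-diluted wettable powder; greenhouse-grown plants rated for herbicidal damage 21 days post-treatment.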

Amaranthus viridis L. [5] = assay: as above; settings: 1000 g active ingredient per hectare, 21st day after treatment, criteria of Table 138
Procedure, shortened: as §2

[6] = tested on: Scirpus juncoides Roxb. var. ohwianus. T. Koyama; assay: Herbicidal effects in paddy field soil treatment (Test Example 1); settings: paddy field soil treatment; 1000 g of the active ingredient per hectare; wettable powder added dropwise on water surface; 21st day after treatment
Procedure, shortened: (§3)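 Flooded-paddy soil treatment under greenhouse conditions: a diluted wettable powder at 1000 g a.i./ha went onto the water surface one day post-sowing, with 3 cm standing water, and weed control was graded on a scoring scale 21 days after treatment.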

[7] = tested on: Echinochloa oryzicola Vasing; assay: as above; settings: paddy field soil treatment; 1000 g of the active ingredient per hectare; wettable powder added dropwise on water surface; 21st day after treatment
Procedure, shortened: as §3

[8] = tested on: Monochoria vaginalis (Burm. f.) Presl var. plantaginea (Roxb.) Solms-Laub.; assay: as above; settings: paddy field soil treatment; 1000 g of the active ingredient per hectare; wettable powder added dropwise on water surface; 21st day after treatment
Procedure, shortened: as §3

SMILES	herbicidal effect (index) on Abutilon theophrasti medicus [1]	herbicidal effect (index) on Echinochloa crus-galli (L.) P. Beauv. var. crus-galli [2]	herbicidal effect (index) on Amaranthus viridis L. (Amaranthus viridis L. [3])	herbicidal effect (index) on Abutilon theophrasti medicus [4]	herbicidal effect (index) on Amaranthus viridis L. (Amaranthus viridis L. [5])	Herbicidal effects index, Scirpus juncoides Roxb. var. ohwianus. T. Koyama [6]	Herbicidal effects index, Echinochloa oryzicola Vasing [7]	Herbicidal effects index, Monochoria vaginalis (Burm. f.) Presl var. plantaginea (Roxb.) Solms-Laub. [8]	herbicidal effects on Abutilon theophrasti medicus [1]	herbicidal effects on Echinochloa crus-galli (L.) P. Beauv. var. crus-galli [2]	herbicidal effects on Amaranthus viridis L. (Amaranthus viridis L. [3])
Cc1nc(-n2c(=O)c(C(=O)C3=C(O)CCCC3=O)nc3ccccc32)no1 [I-163]	5	4	5	5	5	5	4	5			
CN1C(=O)COc2ccc(-n3c(=O)c(C(=O)C4=C(O)CCCC4=O)nc4ccccc43)cc21 [I-275]	4	5	5	4	5	5	4	5			
O=C1CCCC(O)=C1C(=O)c1nc2cccnc2n(Cc2ccccc2Cl)c1=O [III-111]				5	5	5	5	5	5	5	5
O=C1CCCC(O)=C1C(=O)c1nc2ccccc2n(-c2ccsc2)c1=O [I-139]	5	4	5	5	5	5	5	5			
O=C1CCCC(O)=C1C(=O)c1nc2cc(F)c(F)cc2n(-c2ccccc2)c1=O [II-260]				5	5	5	5	5	5	5	5
COCC(C)n1c(=O)c(C(=O)C2=C(O)CCCC2=O)nc2ccccc21 (stereo not drawn) [Compound I-90]	5	5	5	5	5	5	5	5			
O=C1CCCC(O)=C1C(=O)c1nc2ccccc2n(-c2ccc3c(c2)COC3)c1=O [II-224]				5	5	5	4	5	5	5	5
O=C1CCCC(O)=C1C(=O)c1nc2cc(F)ccc2n(-c2ccccc2)c1=O [II-237]				5	5	5	5	5	5	5	5
Cc1cc(-n2c(=O)c(C(=O)C3=C(O)CCCC3=O)nc3ccccc32)nn1C [I-266]	5	5	5	5	5	5	5	5			
CC1(C)CC(=O)C(C(=O)c2nc3cccnc3n(-c3ccccc3)c2=O)=C(O)C1 [IV-3]				5	5	5	5	5	5	5	5
O=C1CCCC(O)=C1C(=O)c1nc2cccnc2n(Cc2ccccc2F)c1=O [III-108]				5	5	5	5	5	5	5	5
O=C1CCCC(O)=C1C(=O)c1nc2ccccc2n(-c2ccc(F)cc2)c1=O [II-8]	5	5	5	5	5	5	5	5			
COCn1c(=O)c(C(=O)C2=C(O)CCCC2=O)nc2ccccc21 [I-49]	5	4	5	5	5	5	5	5			
O=C1CCCC(O)=C1C(=O)c1nc2ccccc2n(-c2ccc(Cl)cn2)c1=O [I-177]	5	5	5	5	5	5	5	5			
COc1ccc(-n2c(=O)c(C(=O)C3=C(O)CCCC3=O)nc3ccc(F)cc32)cc1 [II-188]				5	5	5	5	5	5	4	5
